Source: patent US12240857B2 (priority 2017, dated 2025)
Read-outs that look alike come from different tables or passages of the source.

Assays:
[1] = test system: full-length Marburgvirus (MARV) GP pseudotyped VSV; test: microbe, parasite or virus in culture; type: cell-based, Marburg marburgvirus; conditions: for EC50: Orthomarburgvirus, read-out: EC50 Pseudotype Assays MARV
[2] = test system: full-length Ebola Zaire GP pseudotyped VSV (EBOV_FL); test: microbe, parasite or virus in culture; type: cell-based; conditions: Zaire ebolavirus, read-out: EC50 Pseudotype Assays EBOV_FL
[3] = test system: parent VSV virus expressing the native VSV glycoprotein; test: microbe, parasite or virus in culture; type: cell-based; conditions: Vesicular stomatitis virus, Vero; for EC50: read-out: EC50 Pseudotype Assays VSV; for inhibition at 5 µM: read-out: VSV % inh. at 5 μM
[4] = test system: EBOV mucin-domain-deleted glycoprotein pseudotyped VSV; test: microbe, parasite or virus in culture; type: cell-based, Zaire ebolavirus
[5] = test system: full-length LASV glycoprotein pseudotyped VSV; test: microbe, parasite or virus in culture; type: cell-based, Lassa virus; conditions: Vesicular stomatitis virus, read-out: EC50 Pseudotype Assays LASV
[6] = test system: BDBV mucin-domain-deleted glycoprotein pseudotyped VSV; test: microbe, parasite or virus in culture; type: cell-based, Bundibugyo ebolavirus
[7] = in vitro; conditions: African green monkey
[8] = test system: wild-type Ebola Zaire
[9] = test system: wild-type Sudan Gulu; test: microbe, parasite or virus in culture; conditions: Sudan ebolavirus, HeLa, read-out: Sudan Gulu EC50
[10] = test system: wild-type Ebola Zaire; test: microbe, parasite or virus in culture; conditions: Zaire ebolavirus, HeLa, read-out: Ebola Zaire EC50
[11] = test system: wild-type Sudan Gulu
[12] = in vitro; conditions: human, microsomes
[13] = in vitro; conditions: monkey, microsomes
[14] = in vitro; conditions: mouse, microsomes
[15] = test system: Vero cells; conditions: for % cell viability at 5 μM: African green monkey
[16] = test system: full-length SUDV GP pseudotyped VSV; test: microbe, parasite or virus in culture; type: cell-based, Sudan ebolavirus; conditions: Vesicular stomatitis virus, read-out: EC50 Pseudotype Assays SUDV
[17] = Zaire ebolavirus, Vero, read-out: EC50 EBOV
[18] = Zaire ebolavirus, Vero, read-out: EC50 Pseudotype Assays EBOV
[19] = Vesicular stomatitis virus, Vero, read-out: EC50 BDBV
[20] = Vesicular stomatitis virus, Vero, read-out: EC50 Pseudotype Assays BDBV
[21] = Zaire ebolavirus, Vero, 24 h, read-out: EC50 EBOV
[22] = Vesicular stomatitis virus, Vero, 24 h, read-out: EC50 BDBV

SMILES	EC50 [1] [nM]	EC50 [2] [nM]	EC50 [3] [nM]	EC50 [4, 17] [nM]	EC50 [4, 18] [nM]	EC50 [5] [nM]	EC50 [6, 19] [nM]	EC50 [6, 20] [nM]	CC50 ([7]; CC50) [nM]	CC50 ([7]; Cytotox CC50) [nM]	Ebola Zaire SI (CC50/EC50) [8]	EC50 [10] [nM]	inhibition at 5 µM [3] [%]	EC50 [4, 21] [nM]	EC50 [6, 22] [nM]	also measured
CN1CCC(NC(=O)C23CC4CC(C2)CC(c2ccccc2)(C4)C3)CC1 [Example A26]	2700	160	> 10000	120	120	> 10000	90	90	34000	> 10000						
CC12CC3CC(C(=O)N4CCCN(CCCN5CCCC5)CC4)(C1)CC(c1ccccc1)(C3)C2 (stereo not shown) [Example A43]				140			80		1200		36.3	180				EC50 [9]: 60 nM; Sudan Gulu SI (CC50/EC50) [11]: 104
CC12CC3CC(C(=O)N[C@H]4CN5CCC4CC5)(C1)CC(c1ccccc1)(C3)C2 (stereo partly shown) [Example A45]	290	120	> 10000	60	61	> 10000	140	160	7200	> 10000	>28	380				MARV pseudotyped virus EC50 concentration (in words) [1]: sub-micromolar
CN1CCN(NC(=O)C23CC4CC(C)(C2)CC(c2ccccc2)(C4)C3)CC1 (stereo not shown) [Example A47]				70			170		36200		>8.5	710				
O=C(N1CCNCC1)C12CC3CC(C1)CC(c1ccccc1)(C3)C2 [Example A60]	7900	280	> 10000	210	260	> 10000	170	210		> 10000						
O=C(NC1CCNCC1)C12CC3CC(C1)CC(c1ccccc1)(C3)C2 [Example A63]	2800	40	> 10000	80	80	> 10000	80	80	> 10000	> 10000	>16	390				half-life [12]: 4.3 h; half-life [13]: 3.95 h; half-life [14]: > 3.5 h
CC12CC3CC(C(=O)N4CCNCC4)(C1)CC(c1ccccc1)(C3)C2 (stereo not shown) [Example A71]				130			130		4600		>6	870				
O=C(NC1CCNCC1)C1C2CC3CC1CC(c1ccccc1)(C3)C2 (stereo not shown) [Example A81]				180			110		13900		48.9	1110				EC50 [9]: 210 nM; Sudan Gulu SI (CC50/EC50) [11]: 266
O=C(NC1CCN(Cc2ccccc2)CC1)C12CC3CC(C1)CC(c1ccccc1)(C3)C2 [Example B1, N-(1-benzylpiperidin-4-yl)-3-phenyladamantane-1-carboxamide]													< 20	440	770	% cell viability at 5 μM [15]: 62%
O=C(N[C@@H]1CCNC1)C12CC3CC(C1)CC(c1ccccc1)(C3)C2 [Example B5, 3-phenyl-N-[(3R)-pyrrolidin-3-yl] adamantane-1-carboxamide]													< 20	790	560	% cell viability at 5 μM [15]: 97%
O=C(CN1CCN(C(=O)C23CC4CC(C2)CC(c2ccccc2)(C4)C3)CC1)NC1CC1 [Example B10, N-cyclopropyl-2-{4-[(3-phenyladamantan-1-yl)carbonyl]piperazin-1-yl}acetamide]													< 20	< 5000		
Cc1ccc(C23CC4CC(CC(C(=O)NC5CN6CCC5CC6)(C4)C2)C3)cc1 (stereo not shown) [Example B11, N-{1-azabicyclo[2.2.2]octan-3-yl}-3-(4-methylphenyl)adamantane-1-carboxamide]													< 20	< 5000		% cell viability at 5 μM [15]: 92%
CC12CC3CC(C)(C1)CC(C(=O)NCCN1CCCCC1)(C3)C2 [Example B12, 3,5-dimethyl-N-[2-(piperidin-1-yl)ethyl] adamantane-1-carboxamide]													< 20	50000		% cell viability at 5 μM [15]: 90%
Cc1ccc(C23CC4CC(CC(C(=O)N5CCN(Cc6ccccc6)CC5)(C4)C2)C3)cc1 [Example B13, 1-benzyl-4-{[3-(4-methylphenyl)adamantan-1-yl]carbonyl}piperazine]													< 20	> 5000	> 5000	
Cc1ccc(C23CC4CC(CC(C(=O)N5CCN(C)CC5)(C4)C2)C3)cc1 [Example B14, 1-methyl-4-{[3-(4-methylphenyl)adamantan-1-yl]carbonyl} piperazine]													< 20	5600		% cell viability at 5 μM [15]: 95%
c1ccc(C23CC4CC(CC(CNC5CCNCC5)(C4)C2)C3)cc1 [Example C2, N-((3-phenyladamantan-1-yl)methyl)piperidin-4-amine]				250			200		3600		25.3	250				EC50 [9]: 60 nM; Sudan Gulu SI (CC50/EC50) [11]: 109
CC1CCCC(C)N1CC(O)COCCC12CC3CC(CC(C3)C1)C2 (stereo not shown) [Example D8, 1-[2-(adamantan-1-yl)ethoxy]-3-(2,6-dimethylpiperidin-1-yl) propan-2-ol]	590	300	3800		210	4900		80	3800	4000				210	80	MARV pseudotyped virus EC50 concentration (in words) [1]: sub-micromolar
CC1CCN(CC(O)COc2ccc(C34CC5CC(CC(C5)C3)C4)cc2)CC1 (stereo not shown) [Example D21, 1-[4-(adamantan-1-yl)phenoxy]-3-(4-methylpiperidin-1-yl)propan-2-ol]	360	110	3700		50	3000		110	1100	3700	48.1	150		50	110	MARV pseudotyped virus EC50 concentration (in words) [1]: sub-micromolar; EC50 [9]: 190 nM; EC50 [16]: 410 nM; Sudan Gulu SI (CC50/EC50) [11]: 38.2
OCCN1CCN(CC(O)COc2ccc(C34CC5CC(CC(C5)C3)C4)cc2)CC1 (stereo not shown) [Example D24, 1[4-(adamantan-1-yl)phenoxy]-3[4-(2-hydroxyethyl)piperazin-1-yl]propan-2-ol]	> 10000	80	> 10000		90	> 10000		270	4300	> 10000	45.6	440		80	270	EC50 [9]: 260 nM; EC50 [16]: 2430 nM; Sudan Gulu SI (CC50/EC50) [11]: 78.7
CN(C)CCCNc1nc(C23CC4CC(CC(C4)C2)C3)cs1 [Example D29, (3-{[4-(adamantan-1-yl)-1,3-thiazol-2-yl]amino}propyl) dimethylamine]	660	180	> 10000		170	> 10000		160	9400	> 10000	66.1	920		170	160	MARV pseudotyped virus EC50 concentration (in words) [1]: sub-micromolar; EC50 [9]: 300 nM; EC50 [16]: 1440 nM; Sudan Gulu SI (CC50/EC50) [11]: 203
CCN(CC)CCNc1nc(C23CC4CC(CC(C4)C2)C3)cs1 [Example D32, (2-{[4-(adamantan-1-yl)-1,3-thiazol-2-yl]amino}ethyl) diethylamine]	610	200	> 10000		230	> 10000		170	9000	> 10000				230	170	MARV pseudotyped virus EC50 concentration (in words) [1]: sub-micromolar
Cc1ccccc1-c1nnn(CC(=O)NC(C)C23CC4CC(CC(C4)C2)C3)n1 (stereo not shown) [Example D42, N-[1-(adamantan-1-yl)ethyl]-2-[5-(2-methylphenyl)-2H-1,2,3,4-tetrazol-2-yl] acetamide]																EC50 ([4]; read-out: EC50 EBOV): 3200 nM; EC50 ([6]; read-out: EC50 BDBV): 3900 nM; CC50 [15]: > 10000 nM
